≈ marks a conversion by molar mass, not a printed value. Where two headings read alike, the source gives them in different places.
Key:
[1] = tested on: Aspergillus flavus (ATCC 24,109); assay: microbe, parasite or virus in culture; format: cell-based; conditions: ATCC 24, 24 h
Protocol: (§1) The human skin fibroblast (Hu02 cell) and human breast cancer cells (MDA-MB-231 and SKBR-3 cell lines) were purchased from the National Cell Bank of Iran, Pasture Institute of Ira) for cytotoxicity test. Antimicrobial effects of the Ac-AurH1, AurH1-NH2, and AurH1 against the selected bacteria and fungi were conducted using a standard serial dilution method in a 96-well microplate. For this purpose, the desired fungal and bacterial strains were grown overnight at 37 °C (Some of the fungi were incubated at 25 °C) in related media (SDA for fungi and MHA for bacteria). […] Next, serially diluted synthetic peptides in a volume of 100 μL were added to the microtitre plates, followed by 100 μL of bacteria and fungi to give a final inoculum of 5 × 10^5 colony-forming units (CFU)/ml (a 0.5 McFarland standard inoculum). […] In this test, penicillin and streptomycin antibiotics for bacteria and fluconazole, nystatin, and amphotericin B for fungal strains were used as antibiotic control. […] All tests were repeated three times independently.

[2] = tested on: Aspergillus niger (ATCC 9142); assay: microbe, parasite or virus in culture; format: cell-based; conditions: ATCC 9142, 24 h
Protocol: as §1

[3] = tested on: Candida albicans (ATCC 10,231); assay: microbe, parasite or virus in culture; format: cell-based; conditions: ATCC 10, 24 h
Protocol: as §1

[4] = tested on: Candida glabrata (ATCC 90,030); assay: microbe, parasite or virus in culture; format: cell-based; conditions: ATCC 90, 24 h
Protocol: as §1

[5] = tested on: Candida krusei (ATCC 28,870); assay: microbe, parasite or virus in culture; format: cell-based; conditions: ATCC 28, 24 h
Protocol: as §1

[6] = tested on: Escherichia coli (ATCC 25,922); assay: microbe, parasite or virus in culture; format: cell-based
Protocol: as §1

[7] = tested on: Staphylococcus aureus (ATCC 25,923); assay: microbe, parasite or virus in culture; format: cell-based
Protocol: as §1

[8] = tested on: Human skin fibroblast (Hu02 cells); format: cell-based
Protocol: Toxicity of peptides on Human skin fibroblast (Hu02 cells) and two human breast cancer cell lines (MDA-MB-231 and SKBR3 cell lines) measured by an MTT assay. At first, cell lines with a density of 1 × 10^5 cells were cultured in the wells of 96-well plates for 24 h under standard conditions (37 °C temperature, 5% CO2 atmosphere with 95% relative humidity). After that, the old medium was replaced with fresh medium (with 10% FBS) containing different peptide concentrations, and the cells were incubated for 24 h. A medium without peptide was used as a negative control. After 24 h of incubation and washing the wells with PBS, the medium (containing 10% FBS) was replaced with fresh medium containing 10% MTT solution (freshly prepared 5 mg/ml MTT in PBS), and the plate was incubated for four h in 5% CO2, at 37 °C. Next, the medium was removed from the wells, and 100 µL DMSO was added. Afterward, the plate was shaken to dissolve Formazan crystals. Finally, by a microplate reader (STAT FAX 2100, BioTek, Winooski, USA), the absorbance values were measured at a wavelength of 595 nm. The percentage of toxicity was calculated as follows: […]

human red blood cells = format: cell-based; conditions: 1 h
Protocol: A hemolytic assay was performed to investigate the effects of peptides on human red blood cells. First, 5 ml of fresh human blood was taken from a volunteer. After that, 20% (v/v) suspension of human erythrocytes was prepared and diluted in PBS (1:20). Next, 100 µL of this blood suspension was added in triplicate to 100 µL of a 2-fold serial dilution series of the peptide in a 96‐well plate. 1% Triton-X 100 was used as a positive control to lyse 100% of RBCs, and sterile 0.9% NaCl solution was used as a negative control. Then the plates were incubated at 37 °C for 1 h and centrifuged at 3500 rpm for 10 min. Next, 100 µL of the supernatant was transferred to a new 96-well plate to measure the absorbance at 414 nm using a microplate reader (STAT FAX 2100, BioTek, Winooski, USA). Finally, the percentage of hemolysis was calculated as follows: […]

C. albicans [9] = assay: Killing kinetic assay (time of killing); format: cell-based, Candida albicans; conditions: 1X MIC concentration
C. albicans [10] = format: cell-based, Candida albicans
Protocol: (§2) The microbial inoculum was prepared based on broth micro-dilution assay to generate a concentration of fungi corresponding to 5 × 10^5 CFU/mL. […] The obtained results were analyzed in terms of the fractional inhibitory concentration index (FIC): [drawing 4] AMPs and antibiotics are antagonistic if FIC ≥ 4.0, indifference if > 1 FIC < 4.0, additive if > 0.5 FIC ≤ 1, and synergism if FIC ≤ 0.5.

C. glabrata = format: cell-based, Candida glabrata
Protocol: as §2

C. krusei = format: cell-based, Candida krusei
Protocol: as §2

C. albicans [11] = assay: Ergosterol binding assay (MIC in presence and absence of ergosterol); format: cell-based, Candida albicans
Protocol: An ergosterol binding assay was performed to measure the binding potency of peptides to fungal membrane sterols. For this purpose, the ergosterol was dissolved in DMSO and Tween-20, it was heated to increase the solubility of the formed emulsion and diluted in an SDB medium at a concentration of […] and incubated at 37 °C for 1 h. After that, MIC of the AurH1, Ac-AurH1, and AurH1-NH2 peptides was measured by the micro-dilution method in the presence and absence of ergosterol in different concentrations ([…]) against C. albicans.

C. albicans [12] = assay: Effect of salts and human serum on antimicrobial activity (MIC); format: cell-based, Candida albicans
Protocol: To evaluate the effect of salts and human serum on the antimicrobial activity of the AurH1-NH2 and AurH1 peptides, their antimicrobial activity (MICs values) against C. albicans under different conditions containing salt and human serum was determined. Therefore, mid-logarithmic phase yeasts diluted to 5 × 10^5 CFU/ml in SDB were added to related media containing different concentrations of human serum (10%, 20%, and 30%) and salts (150 mM NaCl and 1mM MgCl2), and incubated at 37 °C for 24 h.

C. albicans [13] = assay: FE-SEM of C. albicans surface after peptide treatment; format: cell-based, Candida albicans; conditions: 0.5 X MIC
Protocol: At first, C. albicans were cultured in broth media. Next, yeasts were deposited by centrifugation (4000 rpm for 1 min) and washed (Three times) with PBS (pH 7.4). […] The samples were centrifuged at 4000 rpm for 1 min, washed three times in PBS, and put on the glass slides (1cm2). Subsequently, cells were dehydrated with ethanol gradient (at 10, 30, 60, 70, and 90%). After that, the dehydrated cells were dissolved in 100% ethanol for 15 min and dried at room temperature (25 °C). Finally, C. albicans cells were coated with gold nanoparticles by an automatic sputter coater and observed using an FE-SEM instrument (JSM-7610 F, JEOL Co., Japan and MIRA3, TESCAN Co., Czech).

[14] = in combination with amphotericin B (Amph)
[15] = in combination with fluconazole (Flu)
[16] = in combination with nystatin (Nys)

In the case of H-WFKIIKK-NH2 [AurH1-NH2, WFKIIKK-NH2], the “MBC (MFC)” value [1] is reported as 1000 µg/mL, the MIC [1] is reported as 250 µg/mL and the “MBC (MFC)” value [2] is reported as 500 µg/mL. The MIC [2] was 125 µg/mL, the “MBC (MFC)” value [3] was 62.50 µg/mL and the MIC [3] was 7.81 µg/mL. For the same molecule, the MBC (MFC) [4] was 62.5 µg/mL, the MIC [4] was 62.5 µg/mL and the “MBC (MFC)” value [5] was 31.25 µg/mL. For the same molecule, the MIC [5] was 7.81 µg/mL, the MIC ([6]; ATCC 25, 24 h) was > 1000 µg/mL and the MIC ([7]; ATCC 25, 24 h) was > 1000 µg/mL. The toxicity [8] was “no significant toxicity”, the “HC50 (concentration that lyses 50% of red blood cells)” value (human red blood cells) was 14,246 µg/ml and the “time to kill all C. albicans (maximum fungicidal effect)” value (C. albicans [9]) was 12 h. For the same molecule, the Interpretation (C. albicans [10]; [14]) was “Synergy (synergism if FIC ≤ 0.5)”, the Interpretation (C. albicans [10]; [15]) was “Indifference (indifference if > 1 FIC < 4.0)” and the Interpretation (C. albicans [10]; [16]) was “Indifference (indifference if > 1 FIC < 4.0)”. The Interpretation (C. glabrata; [14]) was “Synergy (synergism if FIC ≤ 0.5)”, the Interpretation (C. glabrata; [15]) was “Indifference (indifference if > 1 FIC < 4.0)” and the Interpretation (C. glabrata; [16]) was “Antagonist (antagonistic if FIC ≥ 4.0)”. The Interpretation (C. krusei; [14]) was “Synergy (synergism if FIC ≤ 0.5)”, the Interpretation (C. krusei; [15]) was “Indifference (indifference if > 1 FIC < 4.0)” and the Interpretation (C. krusei; [16]) was “Antagonist (antagonistic if FIC ≥ 4.0)”. It also gave an MIC (C. albicans [11]; after treatment with Ergosterol (Erg)) of 7.81 µg/mL, an MIC (C. albicans [11]; before treatment with Ergosterol (substance alone)) of 7.81 µg/mL and an MIC (C. albicans [12]; SDB) of 7.81 µg/mL. It also gave an MIC (C. albicans [12]; SDB + 10% serum (human)) of 7.81 µg/mL, an MIC (C. albicans [12]; SDB + 20% serum (human)) of 7.81 µg/mL and an MIC (C. albicans [12]; SDB + 30% serum (human)) of 15.6 µg/mL. The MIC (C. albicans [12]; SDB + MgCl2 (1 mM)) was 7.81 µg/mL, the MIC (C. albicans [12]; SDB + NaCl (150 mM)) was 7.81 µg/mL and the “surface morphology change (FE-SEM)” value (C. albicans [13]; after 2 h) was “shrinkages in cell-surface”. The “surface morphology change (FE-SEM)” value (C. albicans [13]; after 4 h) was “increase was seen in the amount of cell surface shrinkage and cell roughening” and the “surface morphology change (FE-SEM)” value (C. albicans [13]; after 6 h) was “blisters and surface pores on the cell surface were created”.

Penicillin [reference compound] was tested, and the MIC ([6]; E. coli, mean of 3 independent tests) was 31.25/NA µg/mL and the MIC ([7]; S. aureus, mean of 3 independent tests) was 0.45/NA µg/mL.

[H]/N=C(/N)N[C@H]1[C@H](O)[C@@H](O)[C@H](O[C@@H]2O[C@@H](C)[C@](O)(C=O)[C@H]2O[C@@H]2O[C@@H](CO)[C@H](O)[C@@H](O)[C@@H]2NC)[C@@H](N/C(N)=N\[H])[C@@H]1O [Strep, Streptomycin, reference compound] showed an MIC ([6]; Escherichia coli, ATCC25, E. coli, mean of 3 independent tests, read-out: MIC) of 3.9 µg/mL (≈ 6.71 µM) and an MIC ([7]; Staphylococcus aureus, ATCC25, S. aureus, mean of 3 independent tests, read-out: MIC) of 62.5 µg/mL (≈ 107 µM).
